Assay results published in patent US7311901B2, “Amphiphilic block copolymer and polymeric composition comprising the same for drug delivery” (Samyang Corporation, priority 2003, dated 2007).

Tested on: Taxol®-pretreated cancer cells
Test: IC50 of paclitaxel for Taxol®-pretreated cancer cells
Assay type: cell-based, human
Conditions: Taxol®-pretreated vs native cancer cells; data not shown

IC50 of paclitaxel: increased significantly
Compound: CC(=O)O[C@H]1C(=O)[C@@]2(C)[C@H]([C@H](OC(=O)c3ccccc3)[C@]3(O)C[C@H](OC(=O)[C@H](O)[C@@H](NC(=O)c4ccccc4)c4ccccc4)C(C)=C1C3(C)C)[C@]1(OC(C)=O)CO[C@@H]1C[C@@H]2O [paclitaxel]
